From article PMC6753193 (Frontiers in Microbiology, 2019)
Read-outs that look alike come from different tables or passages of the source.

Assays:
PP1:cdNIPP1 helix MUT = PP1:cdNIPP1 helix MUT (Homo sapiens, UniProt P62136); test: cell-based
EBOV minigenome = format: cell-based, Ebola virus
[1] = 1 h, pH 7.4
PP1 MUT:cdNIPP1 RATA = PP1 MUT:cdNIPP1 RATA (Homo sapiens, UniProt P62136, A299E/G274E/L73Y/Y70W); test: cell-based
PP1:cdNIPP1 RATA = PP1:cdNIPP1 RATA (Homo sapiens, UniProt P62136); test: cell-based
PP1 MUT:cdNIPP1 = PP1 MUT:cdNIPP1 (Homo sapiens, UniProt P62136, A299E/G274E/L73Y/Y70W); test: cell-based
in vitro [2] = conditions: human
PP1:cdNIPP1 = PP1:cdNIPP1 (Homo sapiens, UniProt P62136); test: cell-based
EBOV-eGFP [3] = test: microbe, parasite or virus in culture; format: cell-based, Ebola virus; conditions: Zaire ebolavirus, Vero C1008, 48 h, read-out: IC50 EBOV inhibition (virus titer)
[4] = 1 h, pH 7.4; remark: listed apart in the source
EBOV VP30 = format: cell-based, Ebola virus
WT PP1 = WT PP1 (Homo sapiens, UniProt P62136); test: biochemical; format: binding
in vitro [5] = conditions: mouse, serum
PP1α = PP1α (Oryctolagus cuniculus, UniProt P62139); format: biochemical
PP1 [6] = biological target: PP1 (Homo sapiens, UniProt P36873); format: cell-based
PP1 [7] = biological target: T1, PP1 (Homo sapiens, UniProt P62136); format: binding
PP1 [8] = biological target: T1, PP1; format: binding; remark: listed apart in the source
EBOV-eGFP [9] = test: microbe, parasite or virus in culture; format: cell-based, Ebola virus
[10] = 24 h
EBOV = conditions: cited from earlier work

Sequence of WT PP1 (P62136 7-300 limits assumed): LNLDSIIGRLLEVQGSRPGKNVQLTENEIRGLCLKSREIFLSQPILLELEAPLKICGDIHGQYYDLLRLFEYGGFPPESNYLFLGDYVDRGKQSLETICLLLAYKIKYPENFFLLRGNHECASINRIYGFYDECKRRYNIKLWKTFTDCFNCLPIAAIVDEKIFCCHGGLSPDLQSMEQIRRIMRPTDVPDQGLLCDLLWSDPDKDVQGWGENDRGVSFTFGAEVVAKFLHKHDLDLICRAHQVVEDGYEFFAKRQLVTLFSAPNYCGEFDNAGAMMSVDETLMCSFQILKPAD
T1 sequence (P62136 7-300 limits assumed): as above
Sequence of PP1:cdNIPP1 helix MUT (P62136 whole entry, looked up): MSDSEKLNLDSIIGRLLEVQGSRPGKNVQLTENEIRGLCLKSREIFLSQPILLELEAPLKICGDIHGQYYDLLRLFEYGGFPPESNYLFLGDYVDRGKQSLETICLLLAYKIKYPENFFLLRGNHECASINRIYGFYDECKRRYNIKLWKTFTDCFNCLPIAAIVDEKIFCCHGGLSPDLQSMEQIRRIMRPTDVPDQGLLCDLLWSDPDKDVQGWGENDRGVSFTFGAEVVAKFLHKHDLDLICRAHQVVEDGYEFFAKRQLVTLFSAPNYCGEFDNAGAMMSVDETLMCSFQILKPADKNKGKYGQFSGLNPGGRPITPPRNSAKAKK
Sequence of PP1:cdNIPP1 (P62136 whole entry, looked up): as above
Sequence of PP1:cdNIPP1 RATA (P62136 whole entry, looked up): as above
Sequence of PP1 MUT:cdNIPP1 RATA (P62136 whole entry Y70W/L73Y/G274E/A299E, looked up): as the sequence (P62136 whole entry, looked up) above, with Y70W, L73Y, G274E, A299E counted along it
Sequence of PP1 MUT:cdNIPP1 (P62136 whole entry Y70W/L73Y/G274E/A299E, looked up): as the sequence (P62136 whole entry, looked up) above, with Y70W, L73Y, G274E, A299E counted along it
Sequence of PP1 (Homo sapiens, UniProt P36873) (P36873 whole entry, looked up): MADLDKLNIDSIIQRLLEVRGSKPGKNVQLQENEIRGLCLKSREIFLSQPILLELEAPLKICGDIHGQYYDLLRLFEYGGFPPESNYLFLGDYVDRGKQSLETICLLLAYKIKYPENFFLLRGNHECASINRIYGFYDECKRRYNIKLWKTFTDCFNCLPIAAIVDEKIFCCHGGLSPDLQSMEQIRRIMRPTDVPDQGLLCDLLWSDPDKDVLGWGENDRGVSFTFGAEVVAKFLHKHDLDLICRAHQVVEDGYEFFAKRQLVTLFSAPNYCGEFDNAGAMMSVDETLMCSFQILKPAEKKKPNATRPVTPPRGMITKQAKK
Sequence of PP1α (P62139 whole entry, looked up): as the sequence (P62136 whole entry, looked up) above

SMILES	IC50 (PP1:cdNIPP1 helix MUT) [µM]	remained intact in mouse liver microsomes [1]	effect on cellular viability (HEK293T cells)	IC50 (PP1 MUT:cdNIPP1 RATA) [µM]	IC50 (PP1:cdNIPP1 RATA) [µM]	IC50 (PP1 MUT:cdNIPP1) [µM]	CC50 (in vitro [2]) [µM]	IC50 (PP1:cdNIPP1) [µM]	IC50 (EBOV-eGFP [3]) [µM]	remaining in human liver microsomes [4] [%]	Rmax (WT PP1) [RU]	further results
CCNC(=O)NC(=O)C(C)OC(=O)c1c2c(nc3ccccc13)/C(=C\c1ccc(OC)c(OC)c1)CC2 (centres unmarked) [1E7-03]	2.4	over 90%	no effect on cellular viability	> 20	> 20	2.7	> 300	1.5	7.2	60	–	inhibition of EBOV gene expression (Renilla luciferase) (EBOV minigenome; 10 μM): strongly inhibit; remaining in human serum (10 μM, 37°C, after 24 h): 78%
C=C1[C@@H](O)[C@@H]2O[C@]3(CC[C@H](/C=C/[C@@H](C)[C@@H]4CC(C)=C[C@@]5(O[C@H](C[C@@](C)(O)C(=O)O)CC[C@H]5O)O4)O3)CC[C@H]2O[C@@H]1[C@@H](O)C[C@H](C)[C@H]1O[C@@]2(CCCCO2)CC[C@H]1C [okadaic acid]	–	–	–	–	–	–	–	–	–	–	–	increase of VP30 phosphopeptides (Thr-119 and Ser-124) vs DMSO control (EBOV VP30): 3.3 fold
CC[C@H](C)[C@H](NC(=O)[C@H](Cc1ccccc1)NC(=O)[C@H](CS)NC(=O)[C@@H](NC(=O)[C@H](CCC(N)=O)NC(=O)[C@H](CS)NC(=O)[C@H](Cc1c[nH]cn1)NC(=O)[C@H](Cc1ccccc1)NC(=O)[C@H](CS)NC(=O)[C@H](CS)NC(=O)[C@H](CCCCN)NC(=O)[C@H](CCCCN)NC(=O)[C@H](CCCNC(=N)N)NC(=O)[C@H](CC(C)C)NC(=O)[C@@H]1CCCN1C(=O)[C@H](CO)NC(=O)[C@H](CO)NC(=O)[C@@H]1CCCN1C(=O)[C@H](Cc1ccccc1)NC(=O)[C@H](CCCCN)NC(=O)[C@H](Cc1ccc(O)cc1)NC(=O)[C@@H]1CCCN1C(=O)[C@H](COP(=O)(O)O)NC(=O)[C@H](CCCNC(=N)N)NC(=O)[C@@H]1CCCN1C(=O)[C@@H](NC(=O)[C@@H](N)Cc1c[nH]cn1)[C@@H](C)CC)C(C)C)C(=O)N[C@H](C(=O)N[C@@H](CCCCN)C(=O)O)[C@@H](C)O [pRb-Tat, reference compound]	–	–	–	–	–	–	–	–	–	–	212.4	–
COc1ccc(C=C2CCc3c2nc2ccccc2c3C(=O)OC(C)C(=O)NC2CC2)cc1OC (centres unmarked) [1E7-07]	4.3	over 90%	no effect on cellular viability	> 20	> 20	4.5	> 300	3.7	8.6	90	9.763	inhibition of EBOV gene expression (Renilla luciferase) (EBOV minigenome): strongly inhibit; half-life (in vitro [5]): 6 h; remaining in human serum (human, serum, 24 h): no degradation; Kd (WT PP1): 0.661 µM; kd (WT PP1): 0.0009566 s⁻¹; kon (WT PP1; pH 7.4, read-out: ka): 1450 M⁻¹ s⁻¹; toxicity (Viral ToxGlo) (Vero-E6 cells): no toxicity; effect on PP1 enzymatic activity (PP1α): no effect; effect on PP1 cellular localization (PP1 [6]): does not affect; protection of peptide 75[…]96 from ELNLLB painting (PP1 [7]): over 90%; recovered peptide signals compared to the control (protection from ELNLLB painting) (PP1 [7]): over 70%; competition with pRb-Tat peptide binding to PP1 (PP1 [8]): competed dose-dependently; EBOV inhibitory activity (comparison among analogs) (EBOV-eGFP [9]): best EBOV inhibitory activity; inhibition at 10 µM (EBOV-eGFP [9]; Zaire ebolavirus, Vero C1008, 72 h, read-out: EBOV inhibitory activity): ~70%; remained in mouse serum [10]: 25%
CCNC(=O)NC(=O)C(C)OC(=O)c1c2c(nc3ccccc13)/C(=C\c1cccc([N+](=O)[O-])c1)CCC2 (centres unmarked) [1E7]	–	–	–	–	–	–	–	–	–	–	–	EBOV inhibition (EBOV): inhibited EBOV
